Test system: MDA-MB-231 cells
Assay: cDNA microarray
Type: cell-based, human
Protocol: The cells were incubated with or without 21a. After exposure, cell pellets were collected, and the total RNA from each treatment was purified using the Qiagen RNeasy Mini Kit (Qiagen, Valencia, Calif., USA). The RNA purity was determined to check the quality at 260/280 nm using a NanoDrop 1000 Spectrophotometer (Thermo Fisher Scientific, Wilmington, Del., USA). mRNA was amplified and labeled using the Gene-Chip WT Sense Target Labeling and Control Reagents kit (Affymetrix, Santa Clara, Calif., USA) for expression analysis. The synthesized cDNA was labeled with fluorescence and then hybridized for 17 h using AffymetrixGeneChip Human Gene 1.0 ST array (Affymetrix) to determine microarray hybridization following the manufacturer's protocols. The arrays were subsequently washed using Fluidics Station 450 (Affymetrix), stained with streptavidin-phycoerythrin (Gene-Chip Hybridization, Wash, and Stain kit, Affymetrix), and scanned on a GeneChip Scanner 3000 (Affymetrix). The localized concentrations of fluorescent molecules were quantitated and analyzed using Expression Console Software (Affymetrix) with default RMA parameters as previously described (Chang et al. 2012; Liu et al. 2013). […]

`COc1cc(/C=C/C(=O)/C=C(O)/C=C/c2ccc(OC(=O)C(C)(CO)CO)c(OC)c2)ccc1OC(=O)C(C)(CO)CO` [Compound 21a, ((1E,3Z,6E)-3-Hydroxy-5-oxohepta-1,3,6-triene-1,7-diyl)bis(2-methoxy-4,1-phenylene) bis(3-hydroxy-2-(hydroxymethyl)-2-methylpropenoate)] was tested, and the genes down-regulated (at least 2.5 folds) was 28 genes, the genes up-regulated (at least 2.5 folds) was 69 genes and the “log2 (Ratio) ATF3” value (mRNA, MDA-MB-231 cells, 24-h treatment, ID PH_hs_0000057) was 3.698. For the same compound, the “log2 (Ratio) IL12A” value (mRNA, MDA-MB-231 cells, 24-h treatment, ID PH_hs_0000076) was 4.587, the “log2 (Ratio) DUSP2” value (mRNA, MDA-MB-231 cells, 24-h treatment, ID PH_hs_0000156) was 4.094 and the “log2 (Ratio) SRGN” value (mRNA, MDA-MB-231 cells, 24-h treatment, ID PH_hs_0000255) was 2.917. The “log2 (Ratio) MMP10” value (mRNA, MDA-MB-231 cells, 24-h treatment, ID PH_hs_0000305) was 4.942, the “log2 (Ratio) SLC25A25” value (mRNA, MDA-MB-231 cells, 24-h treatment, ID PH_hs_0000566) was 2.529 and the “log2 (Ratio) DNAJB9” value (mRNA, MDA-MB-231 cells, 24-h treatment, ID PH_hs_0000684) was 3.854. For the same compound, the “log2 (Ratio) RND3” value (mRNA, MDA-MB-231 cells, 24-h treatment, ID PH_hs_0000694) was 2.626, the “log2 (Ratio) SESN2” value (mRNA, MDA-MB-231 cells, 24-h treatment, ID PH_hs_0000852) was 3.324 and the “log2 (Ratio) OMA1” value (mRNA, MDA-MB-231 cells, 24-h treatment, ID PH_hs_0000866) was −2.613. For the same compound, the “log2 (Ratio) SENP5” value (mRNA, MDA-MB-231 cells, 24-h treatment, ID PH_hs_0001262) was 2.748, the “log2 (Ratio) SAT1” value (mRNA, MDA-MB-231 cells, 24-h treatment, ID PH_hs_0002492) was 3.366 and the “log2 (Ratio) OSGEN1” value (mRNA, MDA-MB-231 cells, 24-h treatment, ID PH_hs_0002700) was 3.513. The “log2 (Ratio) C18orf25” value (mRNA, MDA-MB-231 cells, 24-h treatment, ID PH_hs_0002812) was 2.668, the “log2 (Ratio) ZNF77” value (mRNA, MDA-MB-231 cells, 24-h treatment, ID PH_hs_0002971) was 2.665 and the “log2 (Ratio) PDGFC” value (mRNA, MDA-MB-231 cells, 24-h treatment, ID PH_hs_0003147) was −2.534. For the same compound, the “log2 (Ratio) SMIM13” value (mRNA, MDA-MB-231 cells, 24-h treatment, ID PH_hs_0003180) was 2.646, the “log2 (Ratio) PPP1R15A” value (mRNA, MDA-MB-231 cells, 24-h treatment, ID PH_hs_0004421) was 5.381 and the “log2 (Ratio) GEM” value (mRNA, MDA-MB-231 cells, 24-h treatment, ID PH_hs_0004561) was 3.997. For the same compound, the “log2 (Ratio) MMP1” value (mRNA, MDA-MB-231 cells, 24-h treatment, ID PH_hs_0004751) was 3.219, the “log2 (Ratio) LMNB1” value (mRNA, MDA-MB-231 cells, 24-h treatment, ID PH_hs_0004988) was −2.878 and the “log2 (Ratio) ZFAND2A” value (mRNA, MDA-MB-231 cells, 24-h treatment, ID PH_hs_0006387) was 6.274. For the same compound, the “log2 (Ratio) F2R” value (mRNA, MDA-MB-231 cells, 24-h treatment, ID PH_hs_0007383) was −2.717, the “log2 (Ratio) TOP2A” value (mRNA, MDA-MB-231 cells, 24-h treatment, ID PH_hs_0009437) was −3.052 and the “log2 (Ratio) DUSP1” value (mRNA, MDA-MB-231 cells, 24-h treatment, ID PH_hs_0010276) was 4.189. For the same compound, the “log2 (Ratio) TXNIP|LOC101060503” value (mRNA, MDA-MB-231 cells, 24-h treatment, ID PH_hs_0010634) was −2.66, the “log2 (Ratio) H1F0” value (mRNA, MDA-MB-231 cells, 24-h treatment, ID PH_hs_0012629) was −2.89 and the “log2 (Ratio) BRF2” value (mRNA, MDA-MB-231 cells, 24-h treatment, ID PH_hs_0014119) was 2.572. For the same compound, the “log2 (Ratio) HSPA1B” value (mRNA, MDA-MB-231 cells, 24-h treatment, ID PH_hs_0014155) was 2.836, the “log2 (Ratio) METTL7A” value (mRNA, MDA-MB-231 cells, 24-h treatment, ID PH_hs_0014995) was −3.653 and the “log2 (Ratio) CLK1” value (mRNA, MDA-MB-231 cells, 24-h treatment, ID PH_hs_0020147) was 2.804. For the same compound, the “log2 (Ratio) DNAJC3” value (mRNA, MDA-MB-231 cells, 24-h treatment, ID PH_hs_0021974) was 3.011, the “log2 (Ratio) CLCF1” value (mRNA, MDA-MB-231 cells, 24-h treatment, ID PH_hs_0022919) was 2.961 and the “log2 (Ratio) FRS2” value (mRNA, MDA-MB-231 cells, 24-h treatment, ID PH_hs_0023008) was 3.242. For the same compound, the “log2 (Ratio) C21orf91” value (mRNA, MDA-MB-231 cells, 24-h treatment, ID PH_hs_0023556) was 2.733, the “log2 (Ratio) HSPA5” value (mRNA, MDA-MB-231 cells, 24-h treatment, ID PH_hs_0023711) was 2.599 and the “log2 (Ratio) BBS2” value (mRNA, MDA-MB-231 cells, 24-h treatment, ID PH_hs_0023845) was −3.269. The “log2 (Ratio) CBY1” value (mRNA, MDA-MB-231 cells, 24-h treatment, ID PH_hs_0023862) was −2.551, the “log2 (Ratio) TRIB3” value (mRNA, MDA-MB-231 cells, 24-h treatment, ID PH_hs_0023894) was 2.584 and the “log2 (Ratio) CDKN1A” value (mRNA, MDA-MB-231 cells, 24-h treatment, ID PH_hs_0024155) was 2.904. For the same compound, the “log2 (Ratio) ATP2A2” value (mRNA, MDA-MB-231 cells, 24-h treatment, ID PH_hs_0024236) was 2.548, the “log2 (Ratio) DNAJB4” value (mRNA, MDA-MB-231 cells, 24-h treatment, ID PH_hs_0024315) was 3.075 and the “log2 (Ratio) C3orf52” value (mRNA, MDA-MB-231 cells, 24-h treatment, ID PH_hs_0025319) was 3.562. The “log2 (Ratio) CLU” value (mRNA, MDA-MB-231 cells, 24-h treatment, ID PH_hs_0025525) was 3.198, the “log2 (Ratio) CTDSP1” value (mRNA, MDA-MB-231 cells, 24-h treatment, ID PH_hs_0025966) was −2.552 and the “log2 (Ratio) RMND5A” value (mRNA, MDA-MB-231 cells, 24-h treatment, ID PH_hs_0027152) was 3.038. For the same compound, the “log2 (Ratio) SLC3A2” value (mRNA, MDA-MB-231 cells, 24-h treatment, ID PH_hs_0027162) was 2.961, the “log2 (Ratio) GADD45B” value (mRNA, MDA-MB-231 cells, 24-h treatment, ID PH_hs_0027209) was 2.665 and the “log2 (Ratio) FAM20C” value (mRNA, MDA-MB-231 cells, 24-h treatment, ID PH_hs_0027843) was −2.724.
